We go through two compounds from patent publication US10604555B2, “GIP derivatives and uses thereof” (priority 2018, dated 2020).

The format of data set [1] is physicochemical. To be noted: pH 7.4.
Data set [2] in a line: ThT fibrillation assay (physical stability). In kind it is physicochemical. To be noted: 250 μM, pH 7.4, 37° C., 45 hours of incubation. The protocol:
The Thioflavin T assay was performed as outlined in Schlein (2017), AAPS J, 19(2), 397-408.
This has traditionally been measured by visual inspection of the sample. However, that kind of measurement is very cumbersome and depending on the observer. Therefore, the application of a small molecule indicator probe is much more advantageous. Thioflavin T (ThT) is such a probe and has a distinct fluorescence signature when binding to fibrils [Naiki et al. (1989) Anal. Biochem. 177, 244-249; LeVine (1999) Methods. Enzymol. 309, 274-284].
The time course for fibril formation can be described by a sigmoidal curve with the following expression [Nielsen et al. (2001) Biochemistry 40, 6036-6046]:
Here, F is the ThT fluorescence at the time t. The constant t0 is the time needed to reach 50% of maximum fluorescence. The two important parameters describing fibril formation are the lag-time calculated by t0−2τ and the apparent rate constant kapp 1/τ.
Few of those intermediates nucleate to form a template onto which further intermediates may assembly and the fibrillation proceeds. The lag-time corresponds to the interval in which the critical mass of nucleus is built up and the apparent rate constant is the rate with which the fibril itself is formed.
Samples are prepared freshly before each assay. The drug substance was solved with 250 μM of the GIP derivative in 8 mM phosphate, 14 mg/mL propylene glycol, 58 mM phenol, pH 7.4. The pH of the sample was adjusted to the desired value using appropriate amounts of concentrated NaOH and HCl. Thioflavin T was added to the samples from a stock solution in H2O to a final concentration of 1 μM.
Sample aliquots of 200 μl were placed in each well of a 96 well microtiter plate (Packard OptiPlate™-96, white polystyrene). Four replica of each sample (corresponding to one test condition) was placed in one column of wells. The plate was sealed with Scotch Pad (Qiagen).
Incubation, shaking and measurement of the ThT fluorescence emission were done in a Fluoroskan Ascent FL fluorescence platereader (Thermo Labsystems). […] Fluorescence measurement was done using excitation through a 444 nm filter and measurement of emission through a 485 nm filter.
Each run was initiated by incubating the plate at the assay temperature for 10 min. The plate was measured every 20 minutes for a desired period of time. Between each measurement, the plate was shaken and heated as described.
After completion of the ThT assay the replica of each sample was pooled and centrifuged at 20000 rpm for 30 minutes at 18° C. The supernatant was filtered through a 0.22 μm filter and an aliquot was transferred to a HPLC vial. The concentration of the filtered sample relative to the initial sample (in percentage) was reported as the recovery.
The measurement points were saved in Microsoft Excel format for further processing and curve drawing and fitting was performed using GraphPad Prism. […] The data points were a mean of the four replica and shown with standard deviation error bars. Only data obtained in the same experiment (i.e. samples on the same plate) were presented in the same graph ensuring a relative measure of fibrillation between experiments.
The data set may be fitted to Eq. (1).

Data set [3] can be described thus: Chemical stability: HMWP formation by SEC-MS. In kind it is physicochemical. The settings on record: 37° C., 4 weeks, 250 μM, pH 7.4. On the procedure: The aim of this study is to determine the chemical stability of GIP derivative compositions. As a measure of stability of the GIP derivative composition, the formation of high molecular weight peptide formation (% HMWP) as a function of time was analysed by size-exclusion chromatography (SEC-MS). Further, the purity loss of the GIP derivative compositions was measured by LCMS. Samples for chemical stability assays were freshly prepared before each assay. […] The pH of the sample was adjusted to the desired value using appropriate amounts of concentrated NaOH and HCl. […] Formation of covalent oligomers (HMWPs) was analysed and identified by a SEC-MS method. […] The LC system was coupled to both a TUV detector operated at 215 nm, 10 Hz and a high resolution QToF mass spectrometer from Waters (Synapt G2S) operated in positive ion mode and m/z range of 100 to 4000 with normal resolution setting. Lock mass correction against Leu-Enkephalin was done every 31 sec. Spectra were processed in MassLynx version 4.1 and MaxEnt deconvoluted.
In general terms: Size exclusion chromatography separates by hydrodynamic size, large species first.

Data set [4] is described as follows: Chemical stability: purity loss by LCMS. In kind it is physicochemical. To be noted: 37° C., 4 weeks, 250 μM, pH 7.4. On the procedure: The aim of this study is to determine the chemical stability of GIP derivative compositions. As a measure of stability of the GIP derivative composition, the formation of high molecular weight peptide formation (% HMWP) as a function of time was analysed by size-exclusion chromatography (SEC-MS). Further, the purity loss of the GIP derivative compositions was measured by LCMS. Samples for chemical stability assays were freshly prepared before each assay. […] The pH of the sample was adjusted to the desired value using appropriate amounts of concentrated NaOH and HCl. […] The column oven was kept at 55° C. […] The solvents were pumped from a binary solvent manager system and mixed on the high pressure side in a mixer with a volume of 50 μl. The gradient and flow can be seen in table 4: [table] A Flow-through-needle auto sampler at 8° C. was used to inject 1 μl of each sample. The effluent passed through a tunable UV detector (TUV) tuned to 215 nm. The outlet from the UV detector passed to the electrospray source of the mass spectrometer. The capillary was held at 3 kV and dry nitrogen gas was purged at a flow of 750 I/h and a temperature of 250° C. The source block was kept at 120° C. and the large bore cone was flushed with nitrogen at 50 I/h with standard electrode potentials on the rest of the instrument. The MS was operated in high resolution mode with a nominal resolution of 35000. The ToF analyser was operated in ADC mode with an m/z window from 100-2000.

For data set [5] the following is noted: cited from earlier work.

Like-named read-outs stand apart in the source and are kept apart here. Side-chain parts run from the residue outwards. [ ]: non-standard residue; d: D form. The star is where a group is joined. C20 diacid = O=C(O)CCCCCCCCCCCCCCCCCCC(=O)*; Nle = CCCC[C@H](N)C(=O)O; AEEA = NCCOCCOCC(=O)O; Aib = CC(C)(N)C(=O)O

For “N{1}-acetyl,N{Epsilon-24}-[2-[2-[2-[[2-[2-[2-[[4-[(19-carboxynonadecanoylamino)methyl]cyclohexanecarbonyl]amino]ethoxy]ethoxy]acetyl]amino]ethoxy]ethoxy]acetyl]-[D-Tyr1,Aib2,Nle14,Arg18,Lys24,Pro31]-hGIP(1-31) amide (Ac-[dY][Aib]EGTFISDYSIA[Nle]DKIRQQDFVK([AEEA-AEEA-4‑(aminomethyl)cyclohexanecarbonyl-C20 diacid])WLLAQKP-NH2) [Compound 44]”, the “solubility at given pH” value in data set [1] is “**Compound not soluble at given pH”.
For the compound `CC[C@H](C)[C@H](NC(=O)[C@H](CO)NC(=O)[C@H](Cc1ccc(O)cc1)NC(=O)[C@H](CC(=O)O)NC(=O)[C@H](CO)NC(=O)[C@@H](NC(=O)[C@H](Cc1ccccc1)NC(=O)[C@@H](NC(=O)CNC(=O)[C@H](CCC(=O)O)NC(=O)[C@H](C)NC(=O)[C@@H](N)Cc1ccc(O)cc1)[C@@H](C)O)[C@@H](C)CC)C(=O)N[C@@H](C)C(=O)N[C@@H](CCSC)C(=O)N[C@@H](CC(=O)O)C(=O)N[C@@H](CCCCN)C(=O)N[C@H](C(=O)N[C@@H](Cc1c[nH]cn1)C(=O)N[C@@H](CCC(N)=O)C(=O)N[C@@H](CCC(N)=O)C(=O)N[C@@H](CC(=O)O)C(=O)N[C@@H](Cc1ccccc1)C(=O)N[C@H](C(=O)N[C@@H](CC(N)=O)C(=O)N[C@@H](Cc1c[nH]c2ccccc12)C(=O)N[C@@H](CC(C)C)C(=O)N[C@@H](CC(C)C)C(=O)N[C@@H](C)C(=O)N[C@@H](CCC(N)=O)C(=O)N[C@@H](CCCCN)C(=O)NCC(=O)N[C@@H](CCCCN)C(=O)N[C@@H](CCCCN)C(=O)N[C@@H](CC(N)=O)C(=O)N[C@@H](CC(=O)O)C(=O)N[C@@H](Cc1c[nH]c2ccccc12)C(=O)N[C@@H](CCCCN)C(=O)N[C@@H](Cc1c[nH]cn1)C(=O)N[C@@H](CC(N)=O)C(=O)N[C@H](C(=O)N[C@H](C(=O)N[C@@H](CCC(N)=O)C(=O)O)[C@@H](C)O)[C@@H](C)CC)C(C)C)[C@@H](C)CC` [hGIP(1-42), reference compound], the “ThT Assay Lag time” value in data set [2] is 0.33 h. In data set [3], the “HMWP formation (%/month)” value is on record as 2.0 %/month. The “Purity loss (%/month)” value in data set [4] came to 73.1 %/month. Besides, the “half-life of hGIP(1-42) measured in man” value in data set [5] (Deacon et al., J. Clin. Endocrinol. & Metab.) is listed as approximately 7 min; in data set [5] (Meier et al., Diabetes), “about 5 min”.
